# Measured values as given in patent publication US9834558B2, “Substituted bridged urea analogs as sirtuin modulators” (GLAXOSMITHKLINE LLC, priority 2013, dated 2017).
# Where two headings read alike, the source gives them in different places.
# Target: T1, SIRT1 (Homo sapiens, UniProt Q96EB6)
# T1 sequence (Q96EB6 1-747): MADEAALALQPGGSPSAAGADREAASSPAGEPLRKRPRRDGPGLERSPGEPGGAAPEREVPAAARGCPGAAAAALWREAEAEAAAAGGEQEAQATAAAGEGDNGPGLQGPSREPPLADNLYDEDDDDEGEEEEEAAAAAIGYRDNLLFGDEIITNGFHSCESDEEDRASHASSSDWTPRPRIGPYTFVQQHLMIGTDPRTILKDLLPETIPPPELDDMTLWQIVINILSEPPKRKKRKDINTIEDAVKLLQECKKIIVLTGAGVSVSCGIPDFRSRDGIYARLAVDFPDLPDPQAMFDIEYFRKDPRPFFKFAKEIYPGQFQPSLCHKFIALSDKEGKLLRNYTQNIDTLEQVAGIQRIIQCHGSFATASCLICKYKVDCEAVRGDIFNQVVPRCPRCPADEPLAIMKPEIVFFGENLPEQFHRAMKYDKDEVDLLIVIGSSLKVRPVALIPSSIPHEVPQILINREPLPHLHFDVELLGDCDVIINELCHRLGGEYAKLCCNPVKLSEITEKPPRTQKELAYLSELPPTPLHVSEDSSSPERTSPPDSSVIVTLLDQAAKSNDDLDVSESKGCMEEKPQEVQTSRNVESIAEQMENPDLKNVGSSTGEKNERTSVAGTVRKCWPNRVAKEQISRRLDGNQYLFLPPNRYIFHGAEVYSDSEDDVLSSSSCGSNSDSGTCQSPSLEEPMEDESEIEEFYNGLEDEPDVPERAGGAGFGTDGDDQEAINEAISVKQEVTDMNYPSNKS
# Test: Trp mass spectrometry assay of SIRT1 activation
# Type: biochemical
# Details: for TRP Activity (EC1.5): EC1.5 = concentration that results in 150% activation of SIRT1; for Emax: read-out: TRP MAX RESP (percent maximum fold activation)
# Text: Mass spectrometry based assays were used to identify modulators of SIRT1 activity. […] The peptide was labeled with the fluorophore STMR (excitation 540 nm/emission 580 nm) at the C-terminus. The sequence of the peptide substrate was based on p53 with several modifications. In addition, the methionine residue naturally present in the sequence was replaced with the norleucine because the methionine may be susceptible to oxidation during synthesis and purification. The Trp based assay utilized a peptide having an amino acid residues as follows: Ac-R-H-K-K(Ac)-W-NH2 (SEQ ID NO: 2).
# The Trp mass spectrometry assay was conducted as follows. 0.5 μM peptide substrate and 120 μM βNAD^+ were incubated with 10 nM SIRT1 for 25 minutes at 25° C. in a reaction buffer (50 mM HEPES pH 7.5, […], 1 mM DTT, 0.05% BSA). The SIRT1 protein was obtained by cloning the SirT1 gene into a T7-promoter containing vector, which was then expressed in BL21(DE3) bacterial cells and purified as described in further detail below. Test compound was added at varying concentrations to this reaction mixture and the resulting reactions were monitored. After the 25 minute incubation with SIRT1, 10 μL of 10% formic acid was added to stop the reaction. The resulting reactions were sealed and frozen for later mass spec analysis. The relative SIRT1 activity was then determined by measuring the amount of O-acetyl-ADP-ribose (OAADPR) formed (or, alternatively, the amount of deacetylated Trp peptide generated) by the NAD-dependent sirtuin deacetylation reaction in the presence of varying concentrations of the test compound versus control reactions lacking the test compound. The degree to which the test agent activated deacetylation by SIRT1 was expressed as EC1.5 (i.e., the concentration of compound required to increase SIRT1 activity by 50% over the control lacking test compound), and Percent Maximum Activation (i.e., the maximum activity relative to control (100%) obtained for the test compound).
# This time point was the same as that used for test compounds and, within the linear range, the endpoint represents a change in velocity.
# For the above assay, SIRT1 protein was expressed and purified as follows. The SirT1 gene was cloned into a T7-promoter containing vector and transformed into BL21(DE3). The protein was expressed by induction with 1 mM IPTG as an N-terminal His-tag fusion protein at 18° C. overnight and harvested at 30,000×g. Cells were lysed with lysozyme in lysis buffer (50 mM Tris-HCl, 2 mM Tris[2-carboxyethyl]phosphine (TCEP), 10 μM ZnCl2, 200 mM NaCl) and further treated with sonication for 10 min for complete lysis. The protein was purified over a Ni-NTA column (Amersham) and fractions containing pure protein were pooled, concentrated and run over a sizing column (Sephadex S200 26/60 global). The peak containing soluble protein was collected and run on an Ion-exchange column (MonoQ). Gradient elution (200 mM-500 mM NaCl) yielded pure protein. This protein was concentrated and dialyzed against dialysis buffer (20 mM Tris-HCl, 2 mM TCEP) overnight. The protein was aliquoted and frozen at −80° C. until further use.
# “NT” means not tested; “ND” means not determinable.
# [1] = Trp mass spectrometry assay, concentration of test compound giving 150% activation of SIRT1
# [2] = Trp peptide assay, maximum activity relative to control (100%)
# [3] = Trp mass spectrometry assay, EC1.5 = concentration of test compound that results in 150% activation of SIRT1
# [4] = concentration giving 150% activation of SIRT1, Trp peptide substrate
TRP Activity (EC1.5) (Trp peptide assay),Emax [2],Compound,other results
–,–,O=C(Nc1cnccn1)N1c2nc(-c3cc(F)cc(F)c3)ccc2N2CC[C@H]1C2 [Example 397],Tryp AVG EC1.5 (μM) [1]: C (C (EC1.5>25 μM))
A (A (EC1.5<1 μM)),> 150%,"O=C(Nc1cnccn1)N1c2nc(-c3ccnc(C(F)(F)F)c3)ccc2N2CCC[C@H]1C2 [(9S)-N-(pyrazin-2-yl)-5-[2-(trifluoromethyl)pyridin-4-yl]-1,6,8-triazatricyclo[7.3.1.0 {2,7}]trideca-2(7),3,5-triene-8-carboxamide]",–
–,–,O=C(Nc1ccc(F)cn1)N1c2nc(-c3ccnc(N4CCC(F)(F)C4)c3)ccc2N2CC[C@H]1C2 [Example 425],Tryp AVG EC1.5 (μM) [3]: A (A (EC1.5<1 μM))
B (B (EC1.5 1-25 μM)),> 150%,"Cc1cc(-c2ccc3c(n2)N(C(=O)NC2CCC2)[C@H]2CCN3C2)ccn1 [(9S)-N-cyclobutyl-5-(2-methylpyridin-4-yl)-1,6,8-triazatricyclo[7.2.1.0 {2,7}]dodeca-2(7),3,5-triene-8-carboxamide]",–
–,–,O=C(Nc1cccc(-c2cnco2)n1)N1c2nc(-c3cccc(C(F)(F)F)c3)ccc2N2CCC1CC2 [Example 596],Tryp AVG EC1.5 (μM) [3]: A (A (EC1.5<1 μM))
C (C (EC1.5>25 μM)),< 150%,"O=C(Nc1cnccn1)N1c2nc(N3CCNCC3)ccc2N2CC[C@H]1C2 [(9S)-5-(piperazin-1-yl)-N-(pyrazin-2-yl)-1,6,8-triazatricyclo[7.2.1.0 {2,7}]dodeca-2,4,6-triene-8-carboxamide]",–
B (B (EC1.5 1-25 μM)),> 150%,"Cc1ncc(-c2ccc3c(n2)N(C(=O)Nc2cnccn2)[C@H]2CCN3C2)cn1 [(9S)-5-(2-methylpyrimidin-5-yl)-N-(pyrazin-2-yl)-1,6,8-triazatricyclo[7.2.1.0 {2,7}]dodeca-2(7),3,5-triene-8-carboxamide]",–
–,–,CC(=O)O[C@H]1CN2C[C@H]1N(C(=O)Nc1ccccn1)c1nc(-c3cccc(C(F)(F)F)c3)ccc12 [Example 634],Tryp AVG EC1.5 (μM) [4]: C (C (EC1.5>25 μM))
–,–,N#Cc1cccc(-c2ccc3c(n2)N(C(=O)Nc2cccnn2)[C@H]2CCCN3C2)c1 [Example 381],Tryp AVG EC1.5 (μM) [1]: B (B (EC1.5 1-25 μM))
B (B (EC1.5 1-25 μM)),> 150%,"Cc1cc(-c2ccc3c(n2)N(C(=O)Nc2ccc4[nH]cnc4n2)[C@H]2CCN3C2)ccn1 [(9S)-N-{1H-imidazo[4,5-b]pyridin-5-yl}-5-(2-methylpyridin-4-yl)-1,6,8-triazatricyclo[7.2.1.0 {2,7}]dodeca-2(7),3,5-triene-8-carboxamide]",–
–,–,CC(C)(C)OC(=O)NCc1ccc(NC(=O)N2c3nc(-c4cccc(C(F)(F)F)c4)ccc3N3CCC[C@H]2C3)cc1 [Example 445],Tryp AVG EC1.5 (μM) [3]: A (A (EC1.5<1 μM))
–,–,Cc1nc(NC(=O)N2c3nc(-c4cncc(F)c4)ccc3N3CCC2CC3)sc1C [Example 577],Tryp AVG EC1.5 (μM) [3]: B (B (EC1.5 1-25 μM))
–,–,O=C(Nc1cccnn1)N1c2nc(-c3cccc(Cl)c3)ccc2N2CC[C@H]1C2 [Example 822],Tryp AVG EC1.5 (μM) [4]: A (A (EC1.5<1 μM))
B (B (EC1.5 1-25 μM)),> 150%,"Cc1ccc(-c2ccc3c(n2)N(C(=O)Nc2cnccn2)[C@H]2CCN3C2)c(C)n1 [(9S)-5-(2,6-dimethylpyridin-3-yl)-N-(pyrazin-2-yl)-1,6,8-triazatricyclo[7.2.1.0 {2,7}]dodeca-2(7),3,5-triene-8-carboxamide]",–
B (B (EC1.5 1-25 μM)),> 150%,"O=C(Nc1cnccn1)N1c2nc(-c3ccnc(C(F)(F)F)n3)ccc2N2CC[C@H]1C2 [(9S)-N-(pyrazin-2-yl)-5-[2-(trifluoromethyl)pyrimidin-4-yl]-1,6,8-triazatricyclo[7.2.1.0 {2,7}]dodeca-2(7),3,5-triene-8-carboxamide]",–
B (B (EC1.5 1-25 μM)),> 150%,"O=C(Nc1ccccn1)N1c2nc(N3CCC[C@H]3C(F)(F)F)ccc2N2CC[C@H]1C2 [(9S)-N-(pyridin-2-yl)-5-[(2S)-2-(trifluoromethyl)pyrrolidin-1-yl]-1,6,8-triazatricyclo[7.2.1.0 {2,7}]dodeca-2(7),3,5-triene-8-carboxamide]",–
–,–,O=C(Nc1cccc(-c2cnco2)c1)N1c2nc(N3CCC[C@@H](C(F)(F)F)C3)ccc2N2CC[C@H]1C2 [Example 717],Tryp AVG EC1.5 (μM) [4]: A (A (EC1.5<1 μM))
A (A (EC1.5<1 μM)),> 150%,"Cc1cc(-c2ccc3c(n2)N(C(=O)Nc2cnccn2)[C@H]2CCCN3C2)ccn1 [(9S)-5-(2-methylpyridin-4-yl)-N-(pyrazin-2-yl)-1,6,8-triazatricyclo[7.3.1.0 {2,7}]trideca-2(7),3,5-triene-8-carboxamide]",–
A (A (EC1.5<1 μM)),> 150%,"O=C(NCC1CC1)c1ccc2c(n1)N(C(=O)Nc1ccccn1)[C@H]1CCN2C1 [(9S)-5-N-(cyclopropylmethyl)-8-N-(pyridin-2-yl)-1,6,8-triazatricyclo[7.2.1.0 {2,7}]dodeca-2(7),3,5-triene-5,8-dicarboxamide]",–
–,–,O=C(Nc1cncc(F)c1)N1c2nc(-c3cccnc3)ccc2N2CCC[C@H]1C2 [Example 453],Tryp AVG EC1.5 (μM) [3]: B (B (EC1.5 1-25 μM))
C (C (EC1.5>25 μM)),< 150%,"Cc1cc(-c2ccc3c(n2)N(C(=O)N2CCN(C)CC2)[C@H]2CCN3C2)ccn1 [(9S)-8-[(4-methylpiperazin-1-yl)carbonyl]-5-(2-methylpyridin-4-yl)-1,6,8-triazatricyclo[7.2.1.0 {2,7}]dodeca-2,4,6-triene]",–
–,–,C#CCNc1nccc(NC(=O)N2c3nc(-c4cccc(C5(C(F)(F)F)N=N5)c4)ccc3N3CC[C@H]2C3)n1 [Example 804],Tryp AVG EC1.5 (μM) [4]: A (A (EC1.5<1 μM))
–,–,O=C(Nc1cccc(C2=CCOCC2)n1)N1c2nc(-c3cccc(C(F)(F)F)c3)ccc2N2CC[C@H]1C2 [Example 658],Tryp AVG EC1.5 (μM) [4]: A (A (EC1.5<1 μM))
B (B (EC1.5 1-25 μM)),> 150%,"O=C(Nc1ccccn1)N1c2nc(N3CCC(C(F)(F)F)C3)ccc2N2CC[C@H]1C2 (stereo partly drawn) [(9S)-N-(pyridin-2-yl)-5-[(3S)-3-(trifluoromethyl)pyrrolidin-1-yl]-1,6,8-triazatricyclo[7.2.1.0^{2,7}]dodeca-2(7),3,5-triene-8-carboxamide]",–
–,–,N#Cc1cccc(-c2ccc3c(n2)N(C(=O)Nc2ccccn2)[C@H]2CCCN3C2)c1 [Example 348],Tryp AVG EC1.5 (μM) [1]: A (A (EC1.5<1 μM))

Compound,TRP Activity (EC1.5) (Trp peptide assay),Emax [2],other results
"Cc1ccc(-c2ccc3c(n2)N(C(=O)Nc2nc4ccc(F)cc4s2)[C@H]2CCN3C2)cn1 [(9S)-N-(6-fluoro-1,3-benzothiazol-2-yl)-5-(6-methylpyridin-3-yl)-1,6,8-triazatricyclo[7.2.1.0 {2,7}]dodeca-2,4,6-triene-8-carboxamide]",B (B (EC1.5 1-25 μM)),–,Emax: > 150%
